Source: the supplement of paper PMC12076712
± gives the standard deviation of the averaged measurements.

What was measured:
Assay in all cases: pIC50, kinobeads binding competition
Details in all cases: cell material: Jurkat lysate
RPS6KA4 = RPS6KA4 (UniProt O75676)
CIT = CIT (UniProt O14578)
DDR1 = DDR1 (UniProt Q08345)
CDK10 = CDK10 (UniProt Q15131)
BRSK1 = molecular target: T1, BRSK1 (UniProt Q8TDC3)
T1 sequence (whole entry): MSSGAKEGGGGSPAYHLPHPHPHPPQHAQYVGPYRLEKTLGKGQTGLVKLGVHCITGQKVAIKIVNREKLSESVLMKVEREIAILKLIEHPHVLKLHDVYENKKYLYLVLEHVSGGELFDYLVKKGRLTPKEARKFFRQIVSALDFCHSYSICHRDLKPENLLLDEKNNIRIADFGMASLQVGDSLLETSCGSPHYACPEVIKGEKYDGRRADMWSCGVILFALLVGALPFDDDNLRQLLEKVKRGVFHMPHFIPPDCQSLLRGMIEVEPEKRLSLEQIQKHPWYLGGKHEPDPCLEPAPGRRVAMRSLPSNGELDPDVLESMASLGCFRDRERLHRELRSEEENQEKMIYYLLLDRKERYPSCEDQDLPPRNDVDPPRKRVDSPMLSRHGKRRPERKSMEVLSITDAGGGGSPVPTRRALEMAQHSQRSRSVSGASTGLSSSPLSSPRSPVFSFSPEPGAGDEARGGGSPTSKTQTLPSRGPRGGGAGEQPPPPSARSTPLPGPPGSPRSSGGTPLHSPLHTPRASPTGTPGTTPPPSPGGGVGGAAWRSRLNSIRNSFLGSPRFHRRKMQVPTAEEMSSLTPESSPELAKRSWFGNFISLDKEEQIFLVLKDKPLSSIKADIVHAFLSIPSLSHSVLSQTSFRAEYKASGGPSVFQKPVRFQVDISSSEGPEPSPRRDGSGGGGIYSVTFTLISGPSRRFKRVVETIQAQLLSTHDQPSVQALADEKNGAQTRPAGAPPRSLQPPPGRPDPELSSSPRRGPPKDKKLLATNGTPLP

UniProt Q8IW41 = molecular target: T2, UniProt Q8IW41
T2 sequence (whole entry): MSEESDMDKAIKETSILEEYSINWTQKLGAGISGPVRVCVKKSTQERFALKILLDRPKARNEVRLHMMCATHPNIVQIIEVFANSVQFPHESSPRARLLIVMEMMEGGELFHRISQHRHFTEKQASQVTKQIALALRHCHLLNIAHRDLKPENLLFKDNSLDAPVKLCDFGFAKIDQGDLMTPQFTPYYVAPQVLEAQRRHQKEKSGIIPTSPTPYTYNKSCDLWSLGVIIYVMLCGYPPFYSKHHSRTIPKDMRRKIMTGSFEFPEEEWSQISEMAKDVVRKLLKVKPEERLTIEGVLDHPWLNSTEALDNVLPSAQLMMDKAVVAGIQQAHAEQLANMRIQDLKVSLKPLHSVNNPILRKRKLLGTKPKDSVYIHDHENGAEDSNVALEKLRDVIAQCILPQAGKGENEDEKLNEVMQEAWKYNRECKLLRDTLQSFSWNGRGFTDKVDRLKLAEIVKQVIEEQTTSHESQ

PAK1 = PAK1 (UniProt Q13153)
ULK3 = molecular target: T3, ULK3 (UniProt Q6PHR2)
T3 sequence (whole entry): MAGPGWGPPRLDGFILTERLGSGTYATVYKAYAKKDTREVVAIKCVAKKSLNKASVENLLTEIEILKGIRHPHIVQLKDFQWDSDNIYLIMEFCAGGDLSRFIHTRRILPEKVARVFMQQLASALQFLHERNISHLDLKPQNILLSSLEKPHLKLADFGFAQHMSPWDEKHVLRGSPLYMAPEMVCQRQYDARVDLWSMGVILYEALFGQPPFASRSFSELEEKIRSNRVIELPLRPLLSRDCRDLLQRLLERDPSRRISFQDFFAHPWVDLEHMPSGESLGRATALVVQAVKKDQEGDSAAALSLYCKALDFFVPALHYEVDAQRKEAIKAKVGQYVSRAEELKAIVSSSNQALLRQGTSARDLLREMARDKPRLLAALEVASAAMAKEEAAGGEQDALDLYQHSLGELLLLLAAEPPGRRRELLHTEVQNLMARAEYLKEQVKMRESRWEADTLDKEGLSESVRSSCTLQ

SRPK1 = SRPK1 (UniProt Q96SB4)
Chain of SRPK1 (Q96SB4 whole entry): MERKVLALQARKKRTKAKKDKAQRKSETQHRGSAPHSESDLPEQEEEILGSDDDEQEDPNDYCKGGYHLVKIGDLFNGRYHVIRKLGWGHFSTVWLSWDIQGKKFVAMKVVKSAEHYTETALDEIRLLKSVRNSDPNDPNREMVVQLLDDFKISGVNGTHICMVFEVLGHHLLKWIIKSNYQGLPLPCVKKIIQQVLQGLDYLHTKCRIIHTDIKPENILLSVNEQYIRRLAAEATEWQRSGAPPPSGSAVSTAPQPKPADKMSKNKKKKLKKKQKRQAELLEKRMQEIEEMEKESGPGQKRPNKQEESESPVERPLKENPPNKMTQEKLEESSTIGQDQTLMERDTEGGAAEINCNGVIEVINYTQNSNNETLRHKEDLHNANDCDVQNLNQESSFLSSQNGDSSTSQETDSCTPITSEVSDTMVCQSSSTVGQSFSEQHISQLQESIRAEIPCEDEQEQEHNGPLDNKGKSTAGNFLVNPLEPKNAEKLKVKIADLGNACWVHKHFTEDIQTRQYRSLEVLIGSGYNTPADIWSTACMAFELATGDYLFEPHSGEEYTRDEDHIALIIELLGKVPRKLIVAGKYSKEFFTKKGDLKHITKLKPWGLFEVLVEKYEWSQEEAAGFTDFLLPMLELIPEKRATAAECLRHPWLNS

Chain of RPS6KA4 (O75676 whole entry, looked up): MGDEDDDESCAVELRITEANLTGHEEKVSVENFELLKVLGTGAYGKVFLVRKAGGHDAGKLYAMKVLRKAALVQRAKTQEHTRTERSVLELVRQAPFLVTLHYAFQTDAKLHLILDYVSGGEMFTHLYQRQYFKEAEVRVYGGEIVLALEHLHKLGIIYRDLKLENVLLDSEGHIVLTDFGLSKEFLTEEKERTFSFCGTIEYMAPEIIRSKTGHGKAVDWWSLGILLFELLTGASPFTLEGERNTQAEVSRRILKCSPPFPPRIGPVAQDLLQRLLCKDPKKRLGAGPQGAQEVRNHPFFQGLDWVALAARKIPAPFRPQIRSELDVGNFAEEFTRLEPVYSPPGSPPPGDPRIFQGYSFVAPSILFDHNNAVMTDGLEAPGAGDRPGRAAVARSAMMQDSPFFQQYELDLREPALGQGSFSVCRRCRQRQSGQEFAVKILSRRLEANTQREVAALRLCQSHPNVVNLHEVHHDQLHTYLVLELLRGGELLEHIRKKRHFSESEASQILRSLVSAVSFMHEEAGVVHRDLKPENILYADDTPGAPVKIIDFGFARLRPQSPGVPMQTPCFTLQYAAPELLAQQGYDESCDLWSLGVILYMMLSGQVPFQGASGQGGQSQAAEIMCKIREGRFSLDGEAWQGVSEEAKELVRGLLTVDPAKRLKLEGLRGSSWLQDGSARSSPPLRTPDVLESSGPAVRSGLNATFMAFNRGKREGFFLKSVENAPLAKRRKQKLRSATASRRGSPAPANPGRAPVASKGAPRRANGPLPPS
Chain of CIT (O14578 whole entry): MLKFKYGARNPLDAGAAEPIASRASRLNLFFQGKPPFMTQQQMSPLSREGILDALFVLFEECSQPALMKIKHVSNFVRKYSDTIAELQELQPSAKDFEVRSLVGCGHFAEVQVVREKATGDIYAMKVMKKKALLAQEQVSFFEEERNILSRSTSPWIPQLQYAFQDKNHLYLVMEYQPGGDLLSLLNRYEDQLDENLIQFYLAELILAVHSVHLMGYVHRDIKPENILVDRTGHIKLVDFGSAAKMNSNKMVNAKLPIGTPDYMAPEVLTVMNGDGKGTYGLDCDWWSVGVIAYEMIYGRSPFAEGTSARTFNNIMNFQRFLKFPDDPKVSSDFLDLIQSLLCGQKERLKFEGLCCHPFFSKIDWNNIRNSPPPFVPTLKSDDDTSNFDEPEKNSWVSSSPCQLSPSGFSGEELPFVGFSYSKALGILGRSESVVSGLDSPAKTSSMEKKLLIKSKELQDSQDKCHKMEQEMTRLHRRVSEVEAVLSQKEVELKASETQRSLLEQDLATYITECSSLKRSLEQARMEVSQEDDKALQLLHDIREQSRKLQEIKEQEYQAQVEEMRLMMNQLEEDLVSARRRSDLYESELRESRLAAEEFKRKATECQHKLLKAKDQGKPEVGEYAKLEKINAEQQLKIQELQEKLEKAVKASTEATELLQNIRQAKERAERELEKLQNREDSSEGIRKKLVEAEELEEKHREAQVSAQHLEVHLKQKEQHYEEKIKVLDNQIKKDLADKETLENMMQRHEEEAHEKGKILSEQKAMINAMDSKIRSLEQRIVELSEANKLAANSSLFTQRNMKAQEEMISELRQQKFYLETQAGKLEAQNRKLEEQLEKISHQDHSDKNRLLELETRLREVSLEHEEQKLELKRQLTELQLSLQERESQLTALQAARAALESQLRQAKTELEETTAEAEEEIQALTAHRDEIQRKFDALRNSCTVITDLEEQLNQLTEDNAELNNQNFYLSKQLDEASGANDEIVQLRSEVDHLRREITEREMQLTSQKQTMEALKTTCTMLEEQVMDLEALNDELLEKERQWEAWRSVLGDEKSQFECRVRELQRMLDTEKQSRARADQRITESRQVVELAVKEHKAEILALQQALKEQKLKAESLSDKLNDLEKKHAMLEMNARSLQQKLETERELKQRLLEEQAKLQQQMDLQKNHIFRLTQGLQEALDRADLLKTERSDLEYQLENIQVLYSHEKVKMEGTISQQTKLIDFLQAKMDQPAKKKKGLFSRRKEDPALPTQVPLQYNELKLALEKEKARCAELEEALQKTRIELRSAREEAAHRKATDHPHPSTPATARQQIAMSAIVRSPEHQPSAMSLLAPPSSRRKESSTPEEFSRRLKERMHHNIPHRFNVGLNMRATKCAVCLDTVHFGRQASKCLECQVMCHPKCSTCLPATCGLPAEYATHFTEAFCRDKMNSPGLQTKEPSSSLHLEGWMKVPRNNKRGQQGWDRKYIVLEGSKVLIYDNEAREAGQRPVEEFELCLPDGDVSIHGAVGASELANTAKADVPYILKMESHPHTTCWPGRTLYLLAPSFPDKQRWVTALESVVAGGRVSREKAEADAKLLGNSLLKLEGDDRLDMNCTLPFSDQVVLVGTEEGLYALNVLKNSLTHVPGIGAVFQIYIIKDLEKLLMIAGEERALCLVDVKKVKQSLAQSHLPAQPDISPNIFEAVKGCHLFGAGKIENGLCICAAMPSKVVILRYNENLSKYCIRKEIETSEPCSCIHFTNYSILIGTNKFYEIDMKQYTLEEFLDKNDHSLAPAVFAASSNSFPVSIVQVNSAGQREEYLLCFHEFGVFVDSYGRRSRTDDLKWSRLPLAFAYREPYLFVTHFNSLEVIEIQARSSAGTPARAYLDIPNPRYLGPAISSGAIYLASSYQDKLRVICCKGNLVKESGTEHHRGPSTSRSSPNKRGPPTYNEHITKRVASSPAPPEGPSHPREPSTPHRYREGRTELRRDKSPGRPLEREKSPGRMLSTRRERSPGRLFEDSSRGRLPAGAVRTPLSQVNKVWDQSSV
Chain of DDR1 (Q08345 whole entry): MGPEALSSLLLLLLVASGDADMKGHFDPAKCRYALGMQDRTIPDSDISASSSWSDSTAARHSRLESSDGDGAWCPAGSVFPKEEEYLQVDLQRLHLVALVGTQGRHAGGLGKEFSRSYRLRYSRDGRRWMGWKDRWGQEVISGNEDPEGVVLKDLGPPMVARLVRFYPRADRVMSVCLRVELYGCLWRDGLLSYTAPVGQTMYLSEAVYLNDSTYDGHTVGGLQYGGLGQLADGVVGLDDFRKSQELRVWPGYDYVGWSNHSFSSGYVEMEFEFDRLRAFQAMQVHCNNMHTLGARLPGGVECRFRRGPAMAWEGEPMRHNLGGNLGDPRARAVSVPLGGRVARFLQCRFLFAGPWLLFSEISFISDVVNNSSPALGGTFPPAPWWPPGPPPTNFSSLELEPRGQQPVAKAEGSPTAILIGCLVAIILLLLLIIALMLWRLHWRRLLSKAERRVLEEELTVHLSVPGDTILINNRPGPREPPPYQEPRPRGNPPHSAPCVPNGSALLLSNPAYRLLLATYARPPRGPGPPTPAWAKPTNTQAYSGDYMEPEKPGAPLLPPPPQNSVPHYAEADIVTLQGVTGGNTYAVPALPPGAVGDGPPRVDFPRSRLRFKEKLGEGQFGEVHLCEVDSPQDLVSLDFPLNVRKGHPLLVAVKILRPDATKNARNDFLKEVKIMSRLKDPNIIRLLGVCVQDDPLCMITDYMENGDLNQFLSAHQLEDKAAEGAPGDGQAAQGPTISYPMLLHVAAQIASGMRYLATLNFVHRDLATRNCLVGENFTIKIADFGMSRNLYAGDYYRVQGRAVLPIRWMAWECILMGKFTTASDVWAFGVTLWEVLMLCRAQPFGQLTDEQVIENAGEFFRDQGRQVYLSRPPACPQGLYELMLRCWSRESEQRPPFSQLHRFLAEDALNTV
Chain of PAK1 (Q13153 whole entry): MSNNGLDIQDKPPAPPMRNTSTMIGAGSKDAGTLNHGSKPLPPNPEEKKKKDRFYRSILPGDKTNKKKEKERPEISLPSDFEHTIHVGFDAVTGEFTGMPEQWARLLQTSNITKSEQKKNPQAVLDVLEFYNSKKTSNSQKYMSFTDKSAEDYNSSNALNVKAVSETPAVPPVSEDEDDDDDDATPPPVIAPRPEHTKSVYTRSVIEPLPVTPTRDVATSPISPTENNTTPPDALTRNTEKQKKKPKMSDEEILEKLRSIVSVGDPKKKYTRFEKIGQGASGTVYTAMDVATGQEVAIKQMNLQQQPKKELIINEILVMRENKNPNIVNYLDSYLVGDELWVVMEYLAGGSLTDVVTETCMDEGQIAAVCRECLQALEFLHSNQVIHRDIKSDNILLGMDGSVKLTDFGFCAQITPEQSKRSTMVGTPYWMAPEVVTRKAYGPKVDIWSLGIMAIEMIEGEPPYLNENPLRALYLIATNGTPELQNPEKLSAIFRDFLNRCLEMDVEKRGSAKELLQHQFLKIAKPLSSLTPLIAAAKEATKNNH

With CCc1cnn2c(NCc3ccc[n+]([O-])c3)cc(N3CCCC[C@H]3CCO)nc12 [dinaciclib] the pIC50 (RPS6KA4) was < 4.52, the pIC50 (CIT) was < 4.52 and the pIC50 (DDR1) was < 4.52. For the same compound, the pIC50 (CDK10) was 7.86 ± 0.31, the pIC50 (BRSK1) was < 4.52 and the pIC50 (UniProt Q8IW41) was < 4.52. The pIC50 (PAK1) was < 4.52, the pIC50 (ULK3) was < 4.52 and the pIC50 (SRPK1) was < 4.52.
